Converted amounts (≈) assume the structure as drawn.
Legend:
[1] = tested on: Staphylococcus aureus ATCC 29213 (MSSA); test: minimum inhibitory concentration; extreme values may be limits of the assay
How it was run: (§1)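 Methicillin-susceptible and methicillin-resistant Staphylococcus aureus were tested by broth microdilution in 96-well plates, following CLSI guidance with a resazurin redox read-out. Compounds were tested from 0 to 100 µM and incubated with bacteria for 24 h at 37°C, then 30 µl of 0.015% resazurin was added for 2–4 h, with positive controls on each plate. The minimum inhibitory concentration was the lowest concentration that stayed blue rather than turning pink. Runs were done at least twice in triplicate.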

[2] = tested on: Staphylococcus aureus ATCC 700699 (MRSA); test: as above
How it was run: as §1

## CO[C@@H]1CN(c2ccc(C#CC3(O)CN4CCC3CC4)c(Cc3ccccc3)n2)C[C@H]1O (stereo not given in full)
[1]
  minimum inhibitory concentration: > 50 µM
[2]
  minimum inhibitory concentration: > 50 µM

## CO/C=C(/C(=O)OC)c1ccccc1Oc1cc(Oc2ccccc2C#N)ncn1
[1]
  minimum inhibitory concentration: > 50 µM
[2]
  minimum inhibitory concentration: > 50 µM

## O=C(NC1CCCCC1)N1CCN(Cc2ccc3c(c2)OCO3)CC1
[1]
  minimum inhibitory concentration: > 50 µM
[2]
  minimum inhibitory concentration: > 50 µM

## Cc1nn(C(=O)Nc2cccc(C(F)(F)F)c2)c(C)c1Sc1ncccn1
[1]
  minimum inhibitory concentration: > 50 µM
[2]
  minimum inhibitory concentration: > 50 µM

## Cc1nnc(NCc2cccc(Cl)c2)c2ccccc12
[1]
  minimum inhibitory concentration: > 50 µM
[2]
  minimum inhibitory concentration: > 50 µM

## N#Cc1ccc(-c2cnc(N)c(-c3ccc(C(N)=O)cc3)n2)cc1
[1]
  minimum inhibitory concentration: > 50 µM
[2]
  minimum inhibitory concentration: > 50 µM

## O=C(NC1CC1)c1ccc(N2CCOc3ccc(Cl)cc32)s1
[1]
  minimum inhibitory concentration: > 50 µM
[2]
  minimum inhibitory concentration: > 50 µM

## COc1cc(C2=NCCN2)ccc1-n1cc(-c2cccc(C3=NCCN3)c2)nn1
[1]
  minimum inhibitory concentration: > 50 µM
[2]
  minimum inhibitory concentration: > 50 µM

## CN1CCC(c2cc(-c3ccncc3)c(-c3ccc(F)cc3)[nH]2)CC1
[1]
  minimum inhibitory concentration: > 50 µM
[2]
  minimum inhibitory concentration: > 50 µM

## O=C(NCCN1CCCC1)c1cc(NCCN2CCOCC2)nc2ccc(Cl)cc12
[1]
  minimum inhibitory concentration: 50 µM (≈ 21.6 µg/mL)
[2]
  minimum inhibitory concentration: 50 µM (≈ 21.6 µg/mL)

## Clc1ccc(Cl)c(CO[C@H]2CCCC[C@@H]2n2ccnc2)c1
[1]
  minimum inhibitory concentration: > 50 µM
[2]
  minimum inhibitory concentration: > 50 µM

## CC(C)(C)c1cnc(NC(=O)c2ccccc2O)s1
[1]
  minimum inhibitory concentration: > 50 µM
[2]
  minimum inhibitory concentration: > 50 µM

## O=C1[C@@H](Oc2ccccc2)[C@@H](c2ccc(Cl)cc2)N1CCn1cnc2c(NCc3ccccc3)ncnc21
[1]
  minimum inhibitory concentration: > 50 µM
[2]
  minimum inhibitory concentration: > 50 µM

## CCCCc1ccc(C(=O)Nc2nccc3ccccc23)nc1
[1]
  minimum inhibitory concentration: > 50 µM
[2]
  minimum inhibitory concentration: > 50 µM

## COc1cc2ncnc(NC3CCN(Cc4ccccc4)CC3)c2cc1OC
[1]
  minimum inhibitory concentration: > 50 µM
[2]
  minimum inhibitory concentration: > 50 µM

## Cc1ccccc1CN1CCC(O)(c2ccc(Cl)c(C(F)(F)F)c2)CC1
[1]
  minimum inhibitory concentration: > 50 µM
[2]
  minimum inhibitory concentration: > 50 µM

## O=C(Nc1cccc(-c2ccc(NCCCN3CCCC3)nc2)c1)c1ccccc1
[1]
  minimum inhibitory concentration: > 50 µM
[2]
  minimum inhibitory concentration: > 50 µM

## O=C(c1ccco1)N(CCCn1ccnc1)c1nc2c(Cl)cccc2s1
[1]
  minimum inhibitory concentration: > 50 µM
[2]
  minimum inhibitory concentration: > 50 µM

## Nc1cccnc1Nc1ccc(Cl)cc1
[1]
  minimum inhibitory concentration: > 50 µM
[2]
  minimum inhibitory concentration: > 50 µM

## CC1=Nc2ccc(Cl)cc2C(O)(c2ccc(C)cc2)N1CCN1CCCCC1 (stereo not given)
[1]
  minimum inhibitory concentration: > 50 µM
[2]
  minimum inhibitory concentration: > 50 µM

## CN(C)CCNC(=O)N1CCCN(c2ncnc3cc(-c4ccccc4)sc23)CC1
[1]
  minimum inhibitory concentration: > 50 µM
[2]
  minimum inhibitory concentration: > 50 µM

## CCCNC(=O)N1CCC2(CC1)CC(=O)c1cc(C)ccc1O2
[1]
  minimum inhibitory concentration: > 50 µM
[2]
  minimum inhibitory concentration: > 50 µM

## Clc1ccc(CN2CCN(C3=NCCN3)CC2)cc1Cl
[1]
  minimum inhibitory concentration: > 50 µM
[2]
  minimum inhibitory concentration: > 50 µM

## C[C@]1(COc2ccc(N3CCC(Oc4ccc(OC(F)(F)F)cc4)CC3)cc2)Cn2cc([N+](=O)[O-])nc2O1
[1]
  minimum inhibitory concentration: > 50 µM
[2]
  minimum inhibitory concentration: > 50 µM

## CC(C)/N=c1\cc2n(-c3ccc(Cl)cc3)c3ccccc3nc-2cc1Nc1ccc(Cl)cc1
[1]
  minimum inhibitory concentration: > 50 µM
[2]
  minimum inhibitory concentration: > 50 µM

## COc1ccc(CCN2CCC(NCc3cccc(N(C)C)c3)CC2)cc1
[1]
  minimum inhibitory concentration: > 50 µM
[2]
  minimum inhibitory concentration: > 50 µM

## Cc1cccc(Cn2ccc(NC(=O)c3ccc4c(c3)OCO4)n2)c1
[1]
  minimum inhibitory concentration: > 50 µM
[2]
  minimum inhibitory concentration: > 50 µM

## O=C(C1CCN(c2nnc(-n3cccc3)s2)CC1)N1CCC(Cc2ccccc2)CC1
[1]
  minimum inhibitory concentration: > 50 µM
[2]
  minimum inhibitory concentration: > 50 µM

## O=C(NCCc1ccccc1)c1cc(-c2cccnc2)cnc1NCC1CC1
[1]
  minimum inhibitory concentration: > 50 µM
[2]
  minimum inhibitory concentration: > 50 µM

## COc1ccc(-c2cc(NC(=O)c3ccc(F)cc3Cl)ccc2OC)cc1
[1]
  minimum inhibitory concentration: > 50 µM
[2]
  minimum inhibitory concentration: > 50 µM

## Cc1ccc2nc(C)c(-c3ccn(Cc4ccccc4)n3)n2c1
[1]
  minimum inhibitory concentration: > 50 µM
[2]
  minimum inhibitory concentration: > 50 µM

## Nc1ncnc2c1ncn2[C@@H]1O[C@H](COS(=O)(=O)NC(=O)c2ccccc2O)[C@@H](O)[C@H]1O
[1]
  minimum inhibitory concentration: > 50 µM
[2]
  minimum inhibitory concentration: > 50 µM

## Cc1ccc(NC(=O)CC2COc3ccccc3O2)cc1Cl (stereo not given)
[1]
  minimum inhibitory concentration: > 50 µM
[2]
  minimum inhibitory concentration: > 50 µM

## CC(C)(C)OC(=O)N1CCN(c2cc(-c3ccc(Oc4ccccc4)cc3)n[nH]2)CC1
[1]
  minimum inhibitory concentration: > 50 µM
[2]
  minimum inhibitory concentration: > 50 µM

## Cc1cc(NCCc2ccccc2)nc(NC(=N)Nc2ccc(Cl)cc2)n1
[1]
  minimum inhibitory concentration: 25 µM (≈ 9.52 µg/mL)
[2]
  minimum inhibitory concentration: 25 µM (≈ 9.52 µg/mL)
